Source: patent US9662338B2, “Formulations of viloxazine” (Supernus Pharmaceuticals, Inc., priority 2012, dated 2017)

Conditions: steady state plasma levels at both 150 mg and 300 mg total daily dose; IR capsules TID
Experimental: A randomized, double blind, multicenter, placebo controlled clinical study was conducted to evaluate the efficacy of viloxazine in adults with ADHD. […] Subjects not tolerating the 300 mg/day dose were allowed at any time of the treatment phase to down titrate to 1 capsule TID for a total daily dose of 150 mg viloxazine base. […] Plasma samples were obtained up to six hours following dosing.

CCOc1ccccc1OCC1CNCCO1 (racemic) [viloxazine, (RS)-2-[(2-ethoxyphenoxy)methyl]morpholine]
clinical efficacy in adults with ADHD: demonstrated clinical efficacy
